Laboratory results from patent publication US9844529B2, “Combination therapy for ovarian cancer” (Eli Lilly And Company, priority 2011, dated 2017).

Legend:
SK-OV-3x.luc xenografts = assay: SK-OV-3x.luc ovarian cancer xenograft tumor growth inhibition in mice; format: in vivo, mouse
Method: (§1) Human tumor mouse xenografts are generated from early passages of the following ovarian cancer cell lines: A-2780 (National Cancer Institute), SK-OV-3x.luc (SK-OV-3 cell line modified to express luciferase (#1, medium expressing), Indiana University). A-2780 ovarian cancer cells are grown in RPMI 1640 with L-glutamine, 25 mM HEPES (Invitrogen 22400-089) supplemented with 1 mM pyruvate and 10% Certified Fetal Bovine Serum (Gibco 16000, FBS). SK-OV-3x.luc cells (ovarian cancer cells) are grown in McCoy's 5A Medium with L-glutamine (Invitrogen 16600-082) supplemented with non-essential amino acids, 1 mM pyruvate and 10% FBS. Harlan athymic nude mice (6-7 weeks old) are housed with ad libitum feed and water, and are acclimated for one week prior to subcutaneous xenograft implantation in the right rear flank with a defined number of cells. A-2780 or SK-OV-3x.luc implants consist of 0.1 mL of cells (2 or 5×10^6 cells, respectively) in serum-free media with 0.1 mL MATRIGEL® (BD Biosciences) for a final volume of 0.2 mL. Tumors are allowed to develop to a volume of 120-150 mm^3 and are then randomized into treatment groups to attain a consistent average tumor size across all groups. Each treatment group of the SK-OV-3x.luc study is 12 animals; each group of the A-2780 study is 20 animals. Compound A is prepared weekly in hydroxyethylcellulose (HEC) 1%/TWEEN® 80 0.25%/Antifoam 0.05% (HEC/TWEEN®) and stored at 4° C. […] Compound A, 30 mg/kg, oral, TID×21/gemcitabine+cisplatin, 100+4 mg/kg, IP, QW×3* • *SK-OV-3x.luc study only Tumor volume and body weight are recorded and analyzed twice weekly using a data capture and analysis tool. Tumor volume (mm^3) is estimated by using the formula: ν=l×w^2×0.536 where l=larger of measured diameter and w=smaller of perpendicular diameter. Antitumor activity is calculated as a percent reduction of treated (T) tumor volume relative to untreated control (C) tumor volume [1−(T/C)]×100. […]

A-2780 xenografts = assay: A-2780 ovarian cancer xenograft tumor growth inhibition in mice; format: in vivo, mouse; conditions: Compound A 10 mg/kg oral TID×21 alone
Method: as §1, with “cells.” for “cells. A-2780 or SK-OV-3x.luc implants consist of 0.1 mL of cells (2 or 5×10^6 cells, respectively) in serum-free media with 0.1 mL MATRIGEL® (BD Biosciences) for a final volume of 0.2 mL. Tumors are allowed to develop to a volume of 120-150 mm^3 and are then randomized into treatment groups to attain a consistent average tumor size across all groups. Each treatment group of the SK-OV-3x.luc study is 12 animals; each group of the A-2780 study is 20 animals. Compound A is prepared weekly in hydroxyethylcellulose (HEC) 1%/TWEEN® 80 0.25%/Antifoam 0.05% (HEC/TWEEN®) and stored at 4° C.”

## CC(C)(C)Cn1c(N)nc2ccc(-c3nc(C(C)(C)C)[nH]c3-c3ccc(F)cc3)nc21 [Compound A, 5-[2-tert-Butyl-5-(4-fluorophenyl)-1H-imidazol-4-yl]-3-(2,2-dimethylpropyl)imidazo[4,5-b]pyridin-2-amine dimethanesulfonate]
SK-OV-3x.luc xenografts; Compound A 30 mg/kg oral TID×21 alone, SK-OV-3x.luc
  Max % wt. loss: 1.4%
SK-OV-3x.luc xenografts; Compound A 30 mg/kg oral TID×21 alone, SK-OV-3x.luc, 3 weeks
  final tumor volume: 522 ± 54 mm^3
SK-OV-3x.luc xenografts; Compound A alone, 3 weeks, SK-OV-3x.luc xenografts
  final average tumor volume compared with vehicle control: not significantly different from vehicle control
A-2780 xenografts
  Max % wt. loss: 3.0%
A-2780 xenografts; 3 weeks
  final tumor volume: 1828 ± 208 mm^3
